In the assay the target is T1, mutant CFTR (Homo sapiens, UniProt P13569, DEL508-508).
T1 construct: expressed in transfected cells
The assay is described as follows: Fluorescence (HS-YFP) assay for CFTR activity, corrector assay. In kind it is cell-based. Conditions: CFBE41o- and FRT cells with stable expression of mutant CFTR, 24 h compound treatment. The method, then: Fluorescence Assay for CFTR Activity
Mutant CFTR activity was determined with the functional assay based on the halide-sensitive yellow fluorescent protein, HS-YFP (Galietta et al., FEBS Lett 499: 220-224, 2001). CFBE41o- and FRT cells with stable expression of mutant CFTR and HS-YFP were plated on clear-bottom 96-well black microplates (Code 3603, Corning Life Sciences) at a density of 50,000 cells/well and kept at 37° C. in 5% CO2 for 24 hours. For the corrector assay, cells were treated for further 24 hours with test compounds, vehicle (DMSO), or the positive control VX-809. After treatment, the culture medium was removed and cells in each well were stimulated for 30 min at 37° C. with 60 μL PBS (containing 137 mM NaCl, 2.7 mM KCl, 8.1 mM Na2HPO4, 1.5 mM KH2PO4, 1 mM CaCl2, and 0.5 mM MgCl2) plus forskolin (20 μM) and genistein (50 μM).
For determination of potentiator activity on G551D-CFTR or G1349D-CFTR, cells were directly stimulated with forskolin plus test compound without previous incubation at low temperature. At the time of assay, microplates carrying CFBE41o- or FRT cells were transferred to microplate readers (BMG Labtech) equipped with high-quality excitation (HQ500/20X: 500±10 nm) and emission (HQ535/30M: 535±15 nm) filters for YFP (Chroma Technology). The assay consisted of a continuous 14 s fluorescence reading with 2 s before and 12 s after injection of an iodide-containing solution (165 μL of a modified PBS containing I^− instead of Cl^−; final I^− concentration in the well: 100 mM). Data were normalized to the initial background-subtracted fluorescence. Enhanced CFTR activity, induced by correctors and/or potentiators, results in accelerated I^− influx that in turn causes faster HS-YFP quenching (Pedemonte et al., Mol Pharmacol 68:1736-1746, 2005; Pedemonte et al., J Clin Invest 115:2564-2571, […]). To determine fluorescence quenching rate associated with I^− influx, the […] 10 s of data for each well were fitted with an exponential function to extrapolate initial slope (dF/dt).
EC50 obtained are illustrated in table 1 wherein +: EC50>2 μM; ++: 1.0 μM<EC50<2 μM; +++: EC50<1 μM.

T1 sequence (P13569 with tags, fused parts or gaps DEL508-508): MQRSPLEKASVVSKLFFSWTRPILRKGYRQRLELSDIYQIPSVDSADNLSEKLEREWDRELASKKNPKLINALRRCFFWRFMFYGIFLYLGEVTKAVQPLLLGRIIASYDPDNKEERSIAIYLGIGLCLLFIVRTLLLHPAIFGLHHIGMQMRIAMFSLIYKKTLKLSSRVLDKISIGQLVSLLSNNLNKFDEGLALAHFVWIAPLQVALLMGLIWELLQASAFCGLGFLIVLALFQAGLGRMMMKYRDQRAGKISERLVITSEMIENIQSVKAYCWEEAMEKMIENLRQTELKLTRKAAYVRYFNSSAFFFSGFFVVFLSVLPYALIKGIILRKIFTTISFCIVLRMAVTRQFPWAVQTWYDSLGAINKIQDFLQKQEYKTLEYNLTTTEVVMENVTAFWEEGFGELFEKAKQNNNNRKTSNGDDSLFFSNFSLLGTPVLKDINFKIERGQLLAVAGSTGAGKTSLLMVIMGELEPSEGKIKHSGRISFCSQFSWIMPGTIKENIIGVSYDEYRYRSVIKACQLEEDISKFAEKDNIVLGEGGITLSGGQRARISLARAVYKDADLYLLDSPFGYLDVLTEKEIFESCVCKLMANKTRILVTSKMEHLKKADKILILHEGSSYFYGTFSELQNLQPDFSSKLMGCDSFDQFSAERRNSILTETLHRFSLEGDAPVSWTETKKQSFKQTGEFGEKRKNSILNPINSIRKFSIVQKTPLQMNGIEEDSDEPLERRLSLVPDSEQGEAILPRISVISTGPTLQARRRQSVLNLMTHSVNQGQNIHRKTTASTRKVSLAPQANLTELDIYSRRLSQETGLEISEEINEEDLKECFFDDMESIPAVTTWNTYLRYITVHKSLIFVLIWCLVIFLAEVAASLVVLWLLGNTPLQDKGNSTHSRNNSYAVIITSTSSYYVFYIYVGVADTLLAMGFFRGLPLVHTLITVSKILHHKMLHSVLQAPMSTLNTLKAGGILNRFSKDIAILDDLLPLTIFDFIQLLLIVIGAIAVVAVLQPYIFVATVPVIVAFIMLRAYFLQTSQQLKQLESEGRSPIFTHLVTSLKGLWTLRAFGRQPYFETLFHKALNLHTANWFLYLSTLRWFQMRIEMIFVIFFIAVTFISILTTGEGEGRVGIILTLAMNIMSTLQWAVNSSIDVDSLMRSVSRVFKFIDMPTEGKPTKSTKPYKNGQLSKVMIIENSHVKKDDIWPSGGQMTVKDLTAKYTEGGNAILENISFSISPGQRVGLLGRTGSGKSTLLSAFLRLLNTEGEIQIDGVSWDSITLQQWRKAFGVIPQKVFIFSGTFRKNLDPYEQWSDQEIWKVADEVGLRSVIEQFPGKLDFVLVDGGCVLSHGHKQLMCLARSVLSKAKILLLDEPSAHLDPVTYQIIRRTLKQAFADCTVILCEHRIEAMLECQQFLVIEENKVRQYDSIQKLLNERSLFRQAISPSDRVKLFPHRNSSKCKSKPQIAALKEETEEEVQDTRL

Take `Cc1nn(-c2cccc(C(=O)N(C)c3ccc4c(c3)OCO4)n2)c(C)c1Cl` [compound 050, N-(1,3-Benzodioxol-5-yl)-6-(4-chloro-3,5-dimethyl-pyrazol-1-yl)-N-methyl-pyridine-2-carboxamide]: the half-maximal effective concentration (EC50) is > 2000 nM. The result for `Cc1nn(-c2cccc(C(=O)Nc3ccc4oc(C(F)(F)F)nc4c3)c2)c(C)c1Cl` [compound 054, 3-(4-Chloro-3,5-dimethyl-pyrazol-1-yl)-N-[2-(trifluoromethyl)-1,3-benzoxazol-5-yl]benzamide] reads 1000 to 2000 nM; that for `Cc1nn(-c2cccc(C(=O)N(C)c3ccc4oc(C5CC5)nc4c3)c2)c(C)c1Cl` [compound 055, 3-(4-Chloro-3,5-dimethyl-pyrazol-1-yl)-N-(2-cyclopropyl-1,3-benzoxazol-5-yl)-N-methyl-benzamide], 1000 to 2000 nM. Regarding `Cc1nn(-c2cccc(C(=O)N(C)c3ccc4c(c3)OCO4)c2)c(C)c1C(N)=O` [compound 056, 1-[3-[1,3-Benzodioxol-5-yl(methyl)carbamoyl]phenyl]-3,5-dimethyl-pyrazole-4-carboxamide], the EC50 is > 2000 nM. Regarding `Cc1nn(-c2cccc(C(=O)N(C)c3ccc4c(c3)COC4)c2)c(C)c1Cl` [compound 057], the EC50 lay within 1000 to 2000 nM. The result for `Cc1nn(-c2cccc(C(=O)N(C)c3ccc4c(c3)CCO4)c2)c(C)c1Cl` [compound 058] reads < 1000 nM; that for `Cc1nn(-c2cccc(C(=O)N(C)c3ccc4c(c3)OCO4)c2)c(C)c1C(=O)NCCO` [compound 059, 1-[3-[1,3-Benzodioxol-5-yl(methyl)carbamoyl]phenyl]-N-(2-hydroxyethyl)-3,5-dimethyl-pyrazole-4-carboxamide], > 2000 nM; that for `Cc1nn(-c2cccc(C(=O)N(C)c3ccc4oc(C(C)C)nc4c3)c2)c(C)c1Cl` [compound 062, 3-(4-Chloro-3,5-dimethyl-pyrazol-1-yl)-N-(2-isopropyl-1,3-benzoxazol-5-yl)-N-methyl-benzamide], > 2000 nM.

On to `COc1nc2cc(N(C)C(=O)c3cccc(-n4nc(C)c(Cl)c4C)c3)ccc2o1` [compound 064, 3-(4-Chloro-3,5-dimethyl-pyrazol-1-yl)-N-(2-methoxy-1,3-benzoxazol-5-yl)-N-methyl-benzamide], for which the EC50 is > 2000 nM. The result for `Cc1cc(C(=O)O)n(-c2cccc(C(=O)N(C)c3ccc4c(c3)OCO4)c2)n1` [compound 065, 2-[3-[1,3-benzodioxol-5-yl(methyl)carbamoyl]phenyl]-5-methyl-pyrazole-3-carboxylic acid] reads > 2000 nM. The result for `Cc1cc(C(=O)O)nn1-c1cccc(C(=O)N(C)c2ccc3c(c2)OCO3)c1` [compound 066, 1-[3-[1,3-Benzodioxol-5-yl(methyl)carbamoyl]phenyl]-5-methyl-pyrazole-3-carboxylic acid] reads > 2000 nM. Turning to `CCOC(=O)c1nn(-c2cccc(C(=O)N(C)c3ccc4c(c3)OCO4)c2)c(C)c1Cl` [compound 067, Ethyl 1-[3-[1,3-benzodioxol-5-yl(methyl)carbamoyl]phenyl]-4-chloro-5-methyl-pyrazole-3-carboxylate], the EC50 was > 2000 nM.

As to `COc1cccc(N(C)C(=O)c2cccc(-n3nc(C)c(Cl)c3C)c2)c1` [compound 068, 3-(4-Chloro-3,5-dimethyl-pyrazol-1-yl)-N-(3-methoxyphenyl)-N-methyl-benzamide], the EC50 is < 1000 nM.

As to `Cc1c(Cl)c(C(=O)O)nn1-c1cccc(C(=O)N(C)c2ccc3c(c2)OCO3)c1` [compound 069, 1-[3-[1,3-Benzodioxol-5-yl(methyl)carbamoyl]phenyl]-4-chloro-5-methyl-pyrazole-3-carboxylic acid], the EC50 is > 2000 nM. In the case of `Cc1cc(CO)n(-c2cccc(C(=O)N(C)c3ccc4c(c3)OCO4)c2)n1` [compound 070, N-(1,3-Benzodioxol-5-yl)-3-[5-(hydroxymethyl)-3-methyl-pyrazol-1-yl]-N-methyl-benzamide] it was > 2000 nM; in that of `Cc1nn(-c2cc(C(=O)N(C)c3ccc4c(c3)OCO4)ccc2C(F)(F)F)c(C)c1Cl` [compound 071, N-(1,3-Benzodioxol-5-yl)-3-(4-chloro-3,5-dimethyl-pyrazol-1-yl)-N-methyl-4-(trifluoromethyl)benzamide], > 2000 nM. The result for `Cc1nn(-c2nccc(C(=O)N(C)c3ccc4c(c3)OCO4)n2)c(C)c1Cl` [compound 072, N-(1,3-Benzodioxol-5-yl)-2-(4-chloro-3,5-dimethyl-pyrazol-1-yl)-N-methyl-pyrimidine-4-carboxamide] reads > 2000 nM; that for `Cc1c(Cl)c(CO)nn1-c1cccc(C(=O)N(C)c2ccc3c(c2)OCO3)c1` [compound 073, N-(1,3-Benzodioxol-5-yl)-3-[4-chloro-3-(hydroxylmethyl)-5-methyl-pyrazol-1-yl]-N-methyl-benzamide], > 2000 nM; that for `Cc1c(Cl)c(C(N)=O)nn1-c1cccc(C(=O)N(C)c2ccc3c(c2)OCO3)c1` [compound 074, 1-[3-[1,3-Benzodioxol-5-yl(methyl)carbamoyl]phenyl]-4-chloro-5-methyl-pyrazole-3-carboxamide], > 2000 nM. The result for `CCc1nc2ccc(N(C)C(=O)c3cccc(-n4nc(C)c(Cl)c4C)c3)cc2o1` [compound 076, 3-(4-Chloro-3,5-dimethyl-pyrazol-1-yl)-N-(2-ethyl-1,3-benzoxazol-6-yl)-N-methyl-benzamide] reads < 1000 nM; that for `Cc1cn2cc(N(C)C(=O)c3cccc(-n4nc(C)c(Cl)c4C)c3)ccc2n1` [compound 077, 3-(4-Chloro-3,5-dimethyl-pyrazol-1-yl)-N-methyl-N-(2-methylimidazo[1,2-a]pyridin-6-yl)benzamide], < 1000 nM. Consider `Cc1nn(-c2cccc(C(=O)N(C)c3ccc4oc(C(F)(F)F)nc4c3)c2)c(C)c1Cl` [compound 078, 3-(4-Chloro-3,5-dimethyl-pyrazol-1-yl)-N-methyl-N-[2-(trifluoromethyl)-1,3-benzoxazol-5-yl]benzamide], for which the EC50 was > 2000 nM. On to `Cc1nc2ccc(N(C)C(=O)c3cccc(-n4nc(C)c(Cl)c4C)c3)cn2n1` [compound 079, 3-(4-Chloro-3,5-dimethyl-pyrazol-1-yl)-N-methyl-N-(2-methyl-[1,2,4]triazolo[1,5-a]pyridin-6-yl)benzamide], for which the EC50 was > 2000 nM. For the compound `Cc1nn(-c2cccc(C(=O)N(C)c3ccc4c(c3)OCO4)c2)c(C)c1C#N` [compound 081, N-(1,3-Benzodioxol-5-yl)-3-(4-cyano-3,5-dimethyl-pyrazol-1-yl)-N-methyl-benzamide], the 50% effective concentration (EC50) is > 2000 nM. The result for `Cc1ccc(C(=O)N(C)c2ccc3c(c2)OCO3)cc1-n1nc(C)c(Cl)c1C` [compound 082, N-(1,3-Benzodioxol-5-yl)-3-(4-chloro-3,5-dimethyl-pyrazol-1-yl)-N,4-dimethyl-benzamide] reads 1000 to 2000 nM; that for `Cc1nn(-c2cccc(C(=O)N(C)c3ccc4c(c3)OCO4)c2)c(C(=O)O)c1Cl` [compound 083, 2-[3-[1,3-Benzodioxol-5-yl(methyl)carbamoyl]phenyl]-4-chloro-5-methyl-pyrazole-3-carboxylic acid], > 2000 nM; that for `Cc1nn(-c2cccc(C(=O)N(C)c3ccc4c(c3)OCO4)c2)c(C(N)=O)c1Cl` [compound 084, 2-[3-[1,3-benzodioxol-5-yl(methyl)carbamoyl]phenyl]-4-chloro-5-methyl-pyrazole-3-carboxamide], > 2000 nM. In the case of `CNC(=O)c1c(Cl)c(C)nn1-c1cccc(C(=O)N(C)c2ccc3c(c2)OCO3)c1` [compound 085, 2-[3-[1,3-benzodioxol-5-yl(methyl)carbamoyl]phenyl]-4-chloro-N,5-dimethyl-pyrazole-3-carboxamide] it was > 2000 nM; in that of `CCOC(=O)c1nn(-c2cccc(C(=O)N(C)c3ccc4c(c3)OCO4)c2)c(C(C)C)c1Cl` [compound 086, Ethyl 1-[3-[1,3-benzodioxol-5-yl(methyl)carbamoyl]phenyl]-4-chloro-5-isopropyl-pyrazole-3-carboxylate], > 2000 nM; in that of `CCOC(=O)c1c(Cl)c(C(C)C)nn1-c1cccc(C(=O)N(C)c2ccc3c(c2)OCO3)c1` [compound 087, Ethyl 2-[3-[1,3-benzodioxol-5-yl(methyl)carbamoyl]phenyl]-4-chloro-5-isopropyl-pyrazole-3-carboxylate], < 1000 nM. For `Cc1nn(-c2cccc(C(=O)N(C)c3ccc4c(c3)OCO4)c2)c(C(=O)N(C)C)c1Cl` [compound 088, 2-[3-[1,3-benzodioxol-5-yl(methyl)carbamoyl]phenyl]-4-chloro-N,N,5-trimethyl-pyrazole-3-carboxamide], the EC50 was > 2000 nM.

The values above are taken from patent US12492193B2, “Pyrazole derivatives for the treatment of cystic fibrosis” (Fondazione Istituto Italiano Di Tecnologia, priority 2017, dated 2025).
